Measured values: patent EP4803513A1, “SUBSTITUTED QUINAZOLINE COMPOUND, PREPARATION METHOD THEREFOR, PHARMACEUTICAL COMBINATION THEREOF, AND USE THEREOF” (Hongyun Biotech Co., Ltd., priority 2023, dated 2025)

Legend:
Format in all cases: cell-based
BRK-BaF3 cells = test: Cell antiproliferative activity assay (CCK-8), BRK-BaF3; settings: 72 h, CCK-8, 3 days incubation
Summary of the method: (§1)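 Growth inhibition over 3 days, with compound serially diluted 3-fold from a 10 µM top concentration. Cells seeded at 100,000 cells/mL; WT-BaF3 medium carried 10% WEHI supernatant as the IL-3 source. Viability read by CCK-8 OD450 after 2-4 h; IC50 from blank-subtracted curve fit.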

WT-BaF3 cells = test: Cell antiproliferative activity assay (CCK-8), WT-BaF3 (broad-spectrum cytotoxicity); settings: 72 h; WT-BaF3 cells (IL-3 supplemented), CCK-8, 3 days incubation
Summary of the method: as §1

T47D cells = test: Cell antiproliferative activity assay (CCK-8), T47D; settings: Homo sapiens, 72 h, breast cancer cell line T47D, incubation for 3 days
Procedure: BRK-BaF3, WT-BaF3, WEHI cell line, and breast cancer cell line T47D were cultured using RPMI 1640 Basal medium or DMEM (Dulbecco's Modified Eagle Medium) (Shanghai Peiyuan Biotechnology, L220KJ), supplemented with 10% FBS (Gibco, REF 10099-141C) and 1% P/S (Shanghai Peiyuan Biotechnology, S110JV), in an incubator (Thermo 3020) at 37°C with 5% CO2. Cell viability was above 95%. Cells were passaged at a 3:1 ratio every 3-4 days. For WT-BaF3 cells, WEHI cells were first cultured, and their culture supernatant was filtered through a 0.22 µm filter. This supernatant was added at 10% to the regular culture medium to supplement IL-3 required for WT-BaF3 cell proliferation, which served as the culture medium for WT-BaF3. For testing, cells were first collected and counted, then prepared into a cell suspension at 100,000 cells/mL and plated at 100 µL per well. Drug concentrations started from 10 µM and were serially diluted 3:1. After incubation for 3 days, 20 µL of CCK-8 detection reagent (Targetmol C005) was added to each well. After incubation for 2-4 hours, OD450 was measured using a microplate reader (Varioskan LUX, Thermo Scientific). After subtracting the blank background, the curve was fitted and the IC50 was calculated using XLfit software.
In addition, the following table exemplarily lists the IC50 values of some compounds of the present invention against T47D cells.

Row | SMILES | IC50 (BRK-BaF3 cells) [nM] | IC50 (WT-BaF3 cells) [nM] | IC50 (T47D cells) [nM]
1 | Cc1ccc(-c2cc(C(C)C)c3nc(Nc4cn(CCO)nc4C)ncc3c2)c(F)n1 [I-39] | 20 to 100 | 100 to 500 | ≤ 500
2 | Cc1nn(CCO)cc1Nc1ncc2cc(-c3cc(F)cnc3C)cc(C(C)C)c2n1 [I-41] | ≤ 20 | > 2500 | 500 to 1000
3 | Cc1ccnc(F)c1-c1cc(C(C)C)c2nc(Nc3cn(CCO)nc3C)ncc2c1 [I-46] | ≤ 20 | 500 to 2500 | ≤ 500
4 | Cc1nn(CCO)cc1Nc1ncc2cc(-c3c(F)ccnc3N)cc(C(C)C)c2n1 [I-48] | ≤ 20 | > 2500 | 500 to 1000
5 | Cc1nn(CCCO)cc1Nc1ncc2cc(-c3cccnc3)cc(C(C)C)c2n1 [I-53] | ≤ 20 | 500 to 2500 | ≤ 500
6 | CC(C)c1cc(-c2cccnc2)cc2cnc(Nc3cn(CCO)nc3C(F)F)nc12 [I-54] | ≤ 20 | 500 to 2500 | 500 to 1000
7 | CC(C)c1cc(-c2cccnc2)cc2cnc(Nc3cn(CCO)nc3Cl)nc12 [I-55] | ≤ 20 | 500 to 2500 | ≤ 500
8 | Cc1ccncc1-c1cc(C(C)C)c2nc(Nc3cn(CC(C)(C)O)nc3C)ncc2c1 [I-56] | ≤ 20 | 500 to 2500 | ≤ 500
9 | Cc1nn(CC(C)(C)O)cc1Nc1ncc2cc(-c3cccnc3C)cc(C(C)C)c2n1 [I-57] | ≤ 20 | 100 to 500 | 500 to 1000
10 | Cc1ccncc1-c1cc(C(C)C)c2nc(Nc3cnn(CCO)c3C)ncc2c1 [I-59] | ≤ 20 | > 2500 | ≤ 500
11 | Cc1nccnc1-c1cc(C(C)C)c2nc(Nc3cn(CCO)nc3Cl)ncc2c1 [I-98] | ≤ 20 | 500 to 2500 | 500 to 1000
12 | Cc1ccnnc1-c1cc(C2CC2)c2nc(Nc3cn(CCO)nc3C)ncc2c1 [I-119] | ≤ 20 | 500 to 2500 | 500 to 1000
13 | COc1ncncc1-c1cc(C(C)C)c2nc(Nc3cn(CCO)nc3C)ncc2c1 [I-125] | ≤ 20 | > 2500 | 500 to 1000
14 | Cc1ncnc(C)c1-c1cc(C(C)C)c2nc(Nc3cnn(CCO)c3)ncc2c1 [I-140] | ≤ 20 | 500 to 2500 | 500 to 1000
15 | Cc1nn(CCO)cc1Nc1ncc2cc(-c3cncnc3C)cc(C3CC3)c2n1 [I-146] | ≤ 20 | 500 to 2500 | 500 to 1000
16 | Cc1nn(CCO)cc1Nc1ncc2cc(-c3c(C)ncnc3C)cc(C3CC3)c2n1 [I-147] | ≤ 20 | 500 to 2500 | 500 to 1000
17 | Cc1nn(CCO)cc1Nc1ncc2cc(-c3cc(O)ccc3F)cc(C(C)C)c2n1 [I-160] | ≤ 20 | 100 to 500 | ≤ 500
18 | Cc1ccc(C#N)cc1-c1cc(C(C)C)c2nc(Nc3cn(CCO)nc3C)ncc2c1 [I-162] | ≤ 20 | 500 to 2500 | ≤ 500
19 | Cc1nn(CCO)cc1Nc1ncc2cc(-c3c[nH]nc3C)cc(C(C)C)c2n1 [I-187] | ≤ 20 | 500 to 2500 | ≤ 500
20 | Cc1nn(CCO)cc1Nc1ncc2cc(-c3c(C)n[nH]c3C)cc(C(C)C)c2n1 [I-189] | ≤ 20 | 500 to 2500 | 500 to 1000
21 | Cc1nn(CCO)cc1Nc1ncc2cc(-c3cnoc3C)cc(C(C)C)c2n1 [I-193] | ≤ 20 | 100 to 500 | ≤ 500
22 | Cc1nccnc1-c1cc(C(C)C)c2nc(Nc3ccc(P(C)(C)=O)cc3)ncc2c1 [II-11] | ≤ 20 | 500 to 2500 | ≤ 500
23 | Cc1nccnc1-c1cc(C(C)C)c2nc(Nc3ccc(P(C)(C)=O)cc3F)ncc2c1 [II-12] | 20 to 100 | > 2500 | 500 to 1000
24 | COc1cc(Nc2ncc3cc(-c4nccnc4C)cc(C(C)C)c3n2)ccc1P(C)(C)=O [II-16] | ≤ 20 | 500 to 2500 | ≤ 500
25 | Cc1nccnc1-c1cc(C(C)C)c2nc(Nc3ccc(P(C)(C)=O)c(C)c3F)ncc2c1 [II-18] | ≤ 20 | > 2500 | 500 to 1000

Row | SMILES | IC50 (BRK-BaF3 cells) [nM] | IC50 (WT-BaF3 cells) [nM] | IC50 (T47D cells) [nM]
26 | COc1cc(Nc2ncc3cc(-c4nccnc4C)cc(C(C)C)c3n2)c(F)cc1P(C)(C)=O [II-22] | ≤ 20 | 500 to 2500 | ≤ 500
27 | COc1cc(Nc2ncc3cc(-c4nccnc4C)cc(C4CC4)c3n2)ccc1P(C)(C)=O [II-33] | ≤ 20 | 100 to 500 | ≤ 500
28 | COc1cc(Nc2ncc3cc(-c4c(C)ncnc4C)cc(C4CC4)c3n2)ccc1P(C)(C)=O [II-62] | ≤ 20 | 100 to 500 | 500 to 1000
29 | COc1cc(Nc2ncc3cc(-c4cccnc4C)cc(C4CC4)c3n2)ccc1P(C)(C)=O [II-64] | ≤ 20 | 500 to 2500 | ≤ 500
30 | COc1cc(Nc2ncc3cc(-c4nnccc4C)cc(C4CC4)c3n2)ccc1P(C)(C)=O [II-67] | ≤ 20 | 100 to 500 | ≤ 500
31 | COc1cc(Nc2ncc3cc(-c4nccnc4C)cc(C4CC4)c3n2)c(F)cc1P(C)(C)=O [II-70] | 20 to 100 | 500 to 2500 | ≤ 500
32 | COc1nc(Nc2ncc3cc(-c4nccnc4C)cc(C4CC4)c3n2)ccc1P(C)(C)=O [II-71] | ≤ 20 | 500 to 2500 | ≤ 500
33 | CCOc1cc(Nc2ncc3cc(-c4nccnc4C)cc(C4CC4)c3n2)ccc1P(C)(C)=O [II-72] | ≤ 20 | 500 to 2500 | ≤ 500
34 | CCP(=O)(CC)c1ccc(Nc2ncc3cc(-c4nccnc4C)cc(C4CC4)c3n2)cc1OC [II-74] | ≤ 20 | 500 to 2500 | ≤ 500
35 | CNc1cc(Nc2ncc3cc(-c4nccnc4C)cc(C4CC4)c3n2)ccc1P(C)(C)=O [II-77] | ≤ 20 | 100 to 500 | ≤ 500
36 | Cc1c[nH]c(=O)cc1-c1cc(C(C)C)c2nc(Nc3cn(C)nc3C)ncc2c1 [III-2] | ≤ 20 | > 2500 | ≤ 500
37 | Cc1c[nH]c(=O)cc1-c1cc(C(C)C)c2nc(Nc3cn(C)nc3C(F)F)ncc2c1 [III-4] | ≤ 20 | 500 to 2500 | 500 to 1000
38 | [2H]C([2H])([2H])n1cc(Nc2ncc3cc(-c4cc(=O)[nH]cc4C)cc(C(C)C)c3n2)c(C)n1 [III-9] | ≤ 20 | 500 to 2500 | ≤ 500
39 | Cc1c[nH]c(=O)cc1-c1cc(C(C)C)c2nc(Nc3cnn(C4CCN(C)CC4)c3C)ncc2c1 [III-14] | ≤ 20 | 500 to 2500 | 500 to 1000
40 | Cc1nn(C)cc1Nc1ncc2cc(-c3cn(C)nc3C)cc(C(C)C)c2n1 [III-87] | ≤ 20 | 100 to 500 | ≤ 500
41 | Cc1nn(C)cc1Nc1ncc2cc(-c3c[nH]nc3C)cc(C(C)C)c2n1 [III-88] | ≤ 20 | 500 to 2500 | 500 to 1000
42 | Cc1ccnnc1-c1cc(C(C)C)c2nc(Nc3cn(C)nc3C)ncc2c1 [III-90] | ≤ 20 | 100 to 500 | ≤ 500
43 | Cc1nn(C)cc1Nc1ncc2cc(-c3cncnc3C)cc(C(C)C)c2n1 [III-92] | ≤ 20 | 100 to 500 | ≤ 500
44 | Cc1nn(C)cc1Nc1ncc2cc(-c3nccnc3C)cc(C(C)C)c2n1 [III-99] | ≤ 20 | 500 to 2500 | ≤ 500
45 | Cc1nccnc1-c1cc(C(C)C)c2nc(Nc3cn(C)nc3Cl)ncc2c1 [III-101] | ≤ 20 | 500 to 2500 | 500 to 1000
46 | Cc1nccnc1-c1cc(C(C)C)c2nc(Nc3cn(C)nc3C(F)F)ncc2c1 [III-102] | ≤ 20 | > 2500 | 500 to 1000
47 | [2H]C([2H])([2H])n1cc(Nc2ncc3cc(-c4nccnc4C)cc(C(C)C)c3n2)c(C)n1 [III-103] | ≤ 20 | 100 to 500 | ≤ 500
48 | Cc1ccncc1-c1cc(C(C)C)c2nc(Nc3cn(C)nc3C)ncc2c1 [III-120] | ≤ 20 | 100 to 500 | ≤ 500
49 | Cc1ccc(C#N)cc1-c1cc(C(C)C)c2nc(Nc3cn(C)nc3C)ncc2c1 [III-130] | ≤ 20 | 500 to 2500 | ≤ 500
50 | Cc1nccnc1-c1cc(C2CC2)c2nc(Nc3cnn(CC(=O)N(C)C)c3)ncc2c1 [III-132] | ≤ 20 | 500 to 2500 | ≤ 500
